One may read the EC50 as the concentration giving half of the maximal effect.

This test deals with T1, human Kv7.2 (Homo sapiens, UniProt O43526).
T1 construct: expressed in transfected cells
T1 sequence (O43526 whole entry): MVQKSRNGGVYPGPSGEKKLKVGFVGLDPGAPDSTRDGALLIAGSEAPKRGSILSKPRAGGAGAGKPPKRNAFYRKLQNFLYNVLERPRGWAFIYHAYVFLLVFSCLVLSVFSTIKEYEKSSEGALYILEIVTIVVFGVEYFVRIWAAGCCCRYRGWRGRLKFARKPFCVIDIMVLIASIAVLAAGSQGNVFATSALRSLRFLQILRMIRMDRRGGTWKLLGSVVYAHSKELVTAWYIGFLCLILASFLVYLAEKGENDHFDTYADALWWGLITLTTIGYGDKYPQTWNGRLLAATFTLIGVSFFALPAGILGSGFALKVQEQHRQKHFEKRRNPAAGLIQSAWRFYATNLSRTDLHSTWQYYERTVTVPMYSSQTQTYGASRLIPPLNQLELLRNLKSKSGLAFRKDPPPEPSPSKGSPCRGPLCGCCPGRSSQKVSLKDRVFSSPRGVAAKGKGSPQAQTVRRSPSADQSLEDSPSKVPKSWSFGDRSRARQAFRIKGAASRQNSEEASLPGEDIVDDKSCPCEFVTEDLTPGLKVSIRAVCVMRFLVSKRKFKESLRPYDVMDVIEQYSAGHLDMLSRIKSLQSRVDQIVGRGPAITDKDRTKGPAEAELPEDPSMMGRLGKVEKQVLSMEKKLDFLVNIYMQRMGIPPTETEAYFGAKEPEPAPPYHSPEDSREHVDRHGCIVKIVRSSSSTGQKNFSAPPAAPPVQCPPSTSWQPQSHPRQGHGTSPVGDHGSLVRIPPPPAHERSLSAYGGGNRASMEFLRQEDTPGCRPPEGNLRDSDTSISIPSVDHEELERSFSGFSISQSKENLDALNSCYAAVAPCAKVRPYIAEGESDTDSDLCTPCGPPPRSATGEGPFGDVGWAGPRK
In words: activation (potentiation) of Kv7.2 current, SyncroPatch 384 electrophysiology in CHO cells stably expressing human Kv7.2. It is filed as cell-based. As to conditions: human Kv7.2 in CHO cells; in presence of 5.6 μM zinc pyrithione; % activation relative to 30 μM ML-213. The protocol: The potency of Kv7 potentiators was determined using the SyncroPatch 384 (Nanion) high throughput electrophysiology platform.
CHO cells stably expressing either human Kv7.2, Kv7.4 or Kv7.5/7.3 under a constitutive CMV promoter were used for these studies. Cells were maintained in F12 Hams+1 mM L-glutamine (Hyclone) supplemented with 10% FBS (Sigma), 0.3×NEAA (Non-essential Gamino-acids) and 400 ug/ml G418 at 37° C. in 5% CO2. Cells were cultured in T-225 flasks (Nunc) for 2-3 days to reach 85-95% confluence prior to electrophysiological recording.
Earle's balanced salt solution (in mM): 135 NaCl, 5.4 KCl, 5 Glucose, 2 CaCl2), 1 MgCl2, 5 HEPES, pH 7.4. Seal enhancer solution (in mM): 90 NaCl, 3 KCl, 35 CaCl2), 10 MgCl2, 10 HEPES, pH 7.4. Extracellular recording solution (in mM): 71 NaCl, 70 NMDG, 13 KCl. 5 Glucose, 2 CaCl2, 1 MgCl2, 10 HEPES, pH 7.4. Intracellular recording solution (in mM): 130 KF, 20 KCl, 4 EGTA, 10 HEPES, 2 EDTA, 0.01 Escin, pH 7.2.
Cells were harvested for electrophysiological recording upon reaching appropriate confluence. Cells were first washed in DPBS (Hyclone, Cat #SH30028.03) and then 2 ml of Accutase (MP Biomedicals #1000449) was added at 28° C. until ~90% of cells were suspended. F12 HAM's media+1 mM L-glutamine (Hyclone, SH30026.02) was then added to the flask to dilute the accutase. Cells were then triturated until a single cell suspension was achieved, a cell count was performed, and cells were centrifuged for 2 min. at 1,000 rpm. Media was then aspirated, and cells were resuspended in Earle's balanced salt solution to a concentration of 0.75×10^6 cells/ml and allowed to recover for 25 min at 10° C.
At the beginning of each assay, 20 μl of cell suspension was dispensed into each well of a multi-hole 384-well SyncroPatch chip by the onboard pipettor. Cell sealing was initiated, and seal enhancer solution was added to facilitate seal formation. Upon completion of sealing, cells were washed 3 times with extracellular recording solution and the assay voltage protocol was started. Human Kv7.2, Kv7.4 or Kv7.5/7.3 channels were evaluated using a voltage protocol in which cells were voltage-clamped at a holding potential of −60 mV. Potassium currents were continuously activated with a series of three voltage steps to −30 mV for 3 seconds, 40 mV for 1 second and −90 mV for 4 seconds with 12 seconds between successive voltage sweeps. Potassium currents were measured from the −90 mV repolarizing step. Baseline current was assessed for 3.5 minutes prior to the addition of 5.6 μM zinc pyrithione (1 μM for Kv7.4). Kv7.2, Kv7.4 or Kv7.5/7.3 current in the presence of zinc pyrithione was acquired over five minutes to allow channels to reach steady state activity prior to addition of test agents. Channel activity was monitored for three minutes preceding the addition of 30 μM ML-213 (3 minutes) to achieve maximum activation. 150 mM TEA with 10 μM XE-991 was applied for 2 minutes to measure the leak current during maximum inhibition of Kv7.2, Kv7.4 or Kv7.5/7.3 channels.
Data were collected on the SyncroPatch platform using PatchControl software (Nanion) and processed and analyzed using DataControl Software (Nanion). Percent activation was calculated from potassium current as follows: The average current for the 5 sweeps in the presence of zinc pyrithione immediately preceding test agent addition was taken as the ‘control’ data. Likewise, the average potassium current in the presence of test agents 5 sweeps immediately preceding addition of 30 μM ML-213 was determined for ‘drug’ data. The average potassium current 5 sweeps immediately prior to addition of 150 mM TEA+10 μM XE-991 was determined for ‘max activation’ data while average currents from 5 sweeps immediately following addition of TEA was determined for ‘max inhibition’ data. Percent activation for each of the 384-wells of a sealchip was calculated as ((‘drug’−‘max inhibition’)/(‘max activation’−‘max inhibition’))*100 with Pipeline Pilot (Accelrys). […]
For orientation: The patch-clamp technique gives a direct electrical read-out from membranes.
Turning to `O=C(NCC1(c2cccc(OC(F)F)n2)CCO1)C1CC12CCOCC2` (stereo not shown) [Example 115, N-[[2-[6-(difluoromethoxy)-2-pyridyl]oxetan-2-yl]methyl]-6-oxaspiro[2.5]octane-2-carboxamide], the EC50 was 2820 nM. Under `COC(C)(CNC(=O)CCC1CCCC1)c1cccc(Cl)c1` (stereo not shown) [Example 53, N-[2-(3-chlorophenyl)-2-methoxy-propyl]-3-cyclopentyl-propanamide] stands 890 nM; under `N#Cc1cccc([C@]2(CNC(=O)CC3CCCCC3)CCO2)c1` [Example 93, N-[[(2S)-2-(3-cyanophenyl)oxetan-2-yl]methyl]-2-cyclohexyl-acetamide], 5430 nM; under `COC(C)(CNC(=O)C1CC1c1ccc(Cl)cc1)c1cccc(Cl)c1` (stereo not shown) [Example 44, 2-(4-chlorophenyl)-N-[2-(3-chlorophenyl)-2-methoxy-propyl]cyclopropanecarboxamide], 900 nM.

With `N#Cc1cccc([C@@]2(CNC(=O)CC3CCCCCC3)CCO2)c1` [Example 94, N-[[(2R)-2-(3-cyanophenyl)oxetan-2-yl]methyl]-2-cycloheptyl-acetamide], the EC50 worked out at 5620 nM. In the case of `O=C(NCC1CCCC1)NCC1(c2cccc(Cl)c2)COC1` [Example 72, 1-[[3-(3-chlorophenyl)oxetan-3-yl]methyl]-3-(cyclopentylmethyl)urea] it was 870 nM. In the case of `O=C(CC12CC(C1)C2)NCC1(c2cccc(Cl)c2)CCO1` (stereo not shown) [Example 63] it was 5190 nM; in that of `CCCCNC(=O)NCC(C)(OC)c1cccc(Cl)c1` (stereo not shown) [Example 8, 1-butyl-3-[2-(3-chlorophenyl)-2-methoxy-propyl]urea], 3650 nM.

As to `O=C(CC1CCCCC1)N[C@H]1C[C@H](c2cccc(Cl)c2)C1` [Example 56, N-[3-(1r,3r)-(3-chlorophenyl)cyclobutyl]-2-cyclohexyl-acetamide], the EC50 came to 3190 nM.

As to `O=C(NCc1cccc(Cl)c1)NCC1(c2cccc(Cl)c2)CCO1` (stereo not shown) [Example 62, 1-[(3-chlorophenyl)methyl]-3-[[2-(3-chlorophenyl)oxetan-2-yl]methyl]urea], the EC50 was determined as 420 nM. Under `N#Cc1cccc([C@]2(CNC(=O)CC3CC4(CCC4)C3)CCO2)c1` [Example 116, N-[[(2S)-2-(3-cyanophenyl)oxetan-2-yl]methyl]-2-spiro[3.3]heptan-2-yl-acetamide] stands 610 nM; under `COC(C)(CNC(=O)NCc1cccc(C)c1)c1cccc(Cl)c1` (stereo not shown) [Example 11, 1-[2-(3-chlorophenyl)-2-methoxy-propyl]-3-(m-tolylmethyl)urea], 1430 nM.

For the molecule `N#Cc1cccc([C@]2(CNC(=O)C3CC3n3cccc3)CCO2)c1` (stereo partly drawn) [Example 135, N-[[(2S)-2-(3-cyanophenyl)oxetan-2-yl]methyl]-2-pyrrol-1-yl-cyclopropanecarboxamide], the EC50 turned out to be 1140 nM. In the case of `O=C(NCC1(c2cccc(Cl)c2)CC1)NC1COC2(CCCC2)C1` (stereo not shown) [Example 12, 1-[[1-(3-chlorophenyl)cyclopropyl]meth-yl]-3-(1-oxaspiro[4.4]nonan-3-yl)urea] it was 2920 nM; in that of `CC(C)(C)CNC(=O)NCC1(c2cccc(Cl)c2)CCO1` (stereo not shown) [Example 60, 1-[[2-(3-chlorophenyl)oxetan-2-yl]methyl]-3-(2,2-dimethylpropyl)urea], 1050 nM; in that of `O=C(NCC(CO)c1cccc(Cl)c1)[C@H]1C[C@@H]1c1ccccc1` (stereo partly drawn) [Example 74, (1S,2S)—N-[2-(3-chlorophenyl)-3-hydroxy-propyl]-2-phenyl-cyclopropanecarboxamide], 3100 nM. Under `COC(C)(CNC(=O)/C=C/c1ccccc1F)c1cccc(Cl)c1` (stereo not shown) [Example 47, (E)-N-[2-(3-chlorophenyl)-2-methoxy-propyl]-3-(2-fluorophenyl)prop-2-enamide] stands 7510 nM; under `O=C(CC1CCCCC1)NCC1(c2cccc(OC(F)F)n2)CCO1` (stereo not shown) [Example 119, 2-cyclohexyl-N-[[2-[6-(difluoromethoxy)-2-pyridyl]oxetan-2-yl]methyl]acetamide], 660 nM; under `N#Cc1cccc([C@]2(CNC(=O)C3CC34CCOCC4)CCO2)c1` (stereo partly drawn) [Example 106, N-[[(2S)-2-(3-cyanophenyl)oxetan-2-yl]methyl]-6-oxaspiro[2.5]octane-2-carboxamide], 4080 nM.

For the molecule `CC(C)(C)[C@@H]1C[C@H]1C(=O)NC[C@@]1(c2cccc(C#N)c2)CCO1` (mixture of isomers) [Example 110, (1RS,2RS)-2-tert-butyl-N-[[(2S)-2-(3-cyanophenyl)oxetan-2-yl]methyl]cyclopropanecarboxamide], the concentration for a half-maximal effect (EC50) is 490 nM. For the molecule `N#Cc1cccc([C@]2(CNC(=O)C3CCC34CCC4)CCO2)c1` (stereo partly drawn) [Example 100, N-[[(2S)-2-(3-cyanophenyl)oxetan-2-yl]methyl]spiro[3.3]heptane-3-carboxamide], the concentration giving a half-maximal response (EC50) was determined as 9760 nM.

Regarding `O=C(NCC1(c2cccc(Cl)c2)CCO1)C1CCCCC1` (stereo not shown) [Example 61], the EC50 was 7600 nM. As to `CC[C@H]1C[C@@H]1C(=O)NC[C@@]1(c2cccc(C#N)c2)CCO1` (mixture of isomers) [Example 126, (1SR,2SR)—N-[[(2S)-2-(3-cyanophenyl)oxetan-2-yl]methyl]-2-ethyl-cyclopropanecarboxamide], the EC50 worked out at 4980 nM. Under `CO[C@@](C)(CNC(=O)[C@H]1C[C@H]1C1CCCC1)c1cccc(Cl)c1` (mixture of isomers) [Example 81, (1SR,2SR)—N-[(2R)-2-(3-chlorophenyl)-2-methoxy-propyl]-2-cyclopentyl-cyclopropanecarboxamide] stands 500 nM; under `O=C(NCC1(c2ccnc(OC(F)F)c2)CCO1)[C@H]1C[C@@H]1c1ccccc1` (stereo partly drawn) [Example 67, (1S,2S)-N-[[2-[2-(difluoromethoxy)-4-pyridyl]oxetan-2-yl]methyl]-2-phenyl-cyclopropanecarboxamide], 410 nM.

On to `CC#C[C@@H]1C[C@@H]1C(=O)NC[C@@]1(c2cccc(C#N)c2)CCO1` (mixture of isomers) [Example 137, (1SR,2RS)—N-[[(2S)-2-(3-cyanophenyl)oxetan-2-yl]methyl]-2-prop-1-ynyl-cyclopropanecarboxamide], for which the EC50 is 1110 nM. `COC(C)(CNC(=O)NC1CCCC1)c1cccc(Cl)c1` (stereo not shown) [Example 3, 1-[2-(3-chlorophenyl)-2-methoxy-propyl]-3-cyclopentyl-urea]: the EC50 was determined as 2340 nM. In the case of `N#Cc1cccc(C2(CNC(=O)CC3CCCCC3)COC2)c1` [Example 89, N-[[3-(3-cyanophenyl)oxetan-3-yl]methyl]-2-cyclohexyl-acetamide] it was 2790 nM. Consider `CO[C@@](C)(CNC(=O)[C@H]1C[C@@H]1c1ccccc1)c1cccc(Cl)c1` [Example 2, (1S,2S)-N-[(2R)-2-(3-chlorophenyl)-2-methoxy-propyl]-2-phenyl-cyclopropanecarboxamide], for which the concentration giving a half-maximal response (EC50) is 60 nM. As for `COc1cc(C(C)(CNC(=O)[C@H]2C[C@@H]2c2ccccc2)OC)ccn1` (mixture of isomers) [Example 52, (1S,2S)-N-[(2RS)-2-methoxy-2-(2-methoxy-4-pyridyl)propyl]-2-phenyl-cyclopropanecarboxamide], the EC50 was determined as 9420 nM. In the case of `CO[C@@](C)(CNC(=O)C1CC12CCCCC2)c1cccc(Cl)c1` (stereo partly drawn) [Example 82, N-[(2R)-2-(3-chlorophenyl)-2-methoxy-propyl]spiro[2.5]octane-2-carboxamide] it was 290 nM.

The values are drawn from patent publication US20260308149A1, “NOVEL CARBOXAMIDE DERIVATIVES” (ANGELINI PHARMA S.P.A., priority 2023, published 2026).
